These results are taken from PubChem BioAssay (NCI).

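Step 1: Grow cells in 96-well plates. Step 2: Expose to compound for 48 hours at 5 concentrations. Step 3: Interpolate endpoints linearly; if unreached, use highest concentration. GI50 is the concentration that inhibits growth by half. TGI: concentration producing complete growth inhibition.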

Among the test systems are SNB-75 CNS; MALME-3M melanoma; HT29 colon; UACC-257 melanoma; EKVX NSCLC; HCT-15 colon; UACC-62 melanoma; OVCAR-5 ovarian; SNB-19 CNS; KM12 colon.
Holding throughout (assay): inhibition of tumour cell growth, NCI panel, 48 h

As to `O=C(/C=C/c1ccccc1)NNC(=O)c1c(Cl)c(Cl)c(Cl)c(Cl)c1-c1nc2ccccc2[nH]1`, the TGI is 59.2 µM in the test with SNB-75 CNS; 59.1 µM in the test with MALME-3M melanoma; over 100 µM in the test on HT29 colon; 99.1 µM in the test with UACC-257 melanoma; over 100 µM with EKVX NSCLC; 90.7 µM with HCT-15 colon. Further, the TGI in the test on UACC-62 melanoma and in the test with OVCAR-5 ovarian was over 100 µM throughout.
For the molecule `O=C(C[n+]1ccc2ccccc2c1)c1ccc2ccc3ccccc3c2c1`, the TGI in the test with SNB-75 CNS came to 18.5 µM; in the test on SNB-19 CNS, 18.7 µM; in the test with MALME-3M melanoma it was 22.2 µM; in the test on HT29 colon, 12.2 µM; in the test with UACC-257 melanoma, 5.64 µM; in the test with EKVX NSCLC, 19.3 µM. Moreover, the TGI with HCT-15 colon stood at 18.9 µM; with UACC-62 melanoma, 9.72 µM; in the test on KM12 colon, 11.5 µM; in the test with OVCAR-5 ovarian it was 19.8 µM.
For `O=c1[nH]nc(NNc2ccccc2)c2nnn(C3CCCCC3)c12`, the TGI with SNB-19 CNS, with MALME-3M melanoma, in the test on HT29 colon, with UACC-257 melanoma, with EKVX NSCLC and in the test on HCT-15 colon was over 100 µM throughout. The TGI with KM12 colon and in the test with OVCAR-5 ovarian was over 100 µM in each case.
In the case of `CCOC(=O)C1=NN(c2ccc(C)cc2)C2=CC(C)=NN(C)C(=S)N21`, the TGI with SNB-75 CNS, with SNB-19 CNS, in the test on HT29 colon, in the test on UACC-257 melanoma, in the test with EKVX NSCLC and with HCT-15 colon was over 100 µM each time. Further, the TGI with UACC-62 melanoma, in the test on KM12 colon and in the test with OVCAR-5 ovarian was over 100 µM in each case.
For `NCCCCc1cc(O)c2c(c1O)C(=O)c1ccccc1C2=O`, the TGI with SNB-19 CNS amounted to 29.2 µM; in the test with MALME-3M melanoma, 30 µM; in the test on HT29 colon, 16.7 µM; with UACC-257 melanoma, 33.4 µM; in the test with EKVX NSCLC, 33.5 µM; in the test with HCT-15 colon, 25.5 µM. In addition, the TGI in the test on UACC-62 melanoma came to 32.6 µM; with KM12 colon, 24.2 µM; in the test on OVCAR-5 ovarian, 28.5 µM.
In the case of `NCCSC(c1ccccc1)c1ccccc1`, the TGI was 79.9 µM in the test on SNB-75 CNS; over 100 µM in the test with SNB-19 CNS; 37.1 µM in the test with MALME-3M melanoma; 35.5 µM with HT29 colon; 30 µM with UACC-257 melanoma; 70.1 µM in the test with EKVX NSCLC. Further, the TGI with HCT-15 colon was over 100 µM; in the test on UACC-62 melanoma it was 31.3 µM; in the test with KM12 colon it was 35.6 µM; with OVCAR-5 ovarian it was 34 µM.
For `Cc1nn(-c2ccccc2)c(C)c1/C=N/N=C1\SCC(=O)N1c1ccccc1`, the TGI was 55 µM in the test with SNB-75 CNS; over 100 µM in the test on SNB-19 CNS; 57.9 µM with MALME-3M melanoma; 73.9 µM in the test with HT29 colon; 88.2 µM in the test on UACC-257 melanoma; 47.1 µM in the test on EKVX NSCLC. The TGI was 63.6 µM with HCT-15 colon, 68.3 µM in the test with UACC-62 melanoma, 94.7 µM in the test on KM12 colon and over 100 µM in the test on OVCAR-5 ovarian.
Regarding `COc1cc2c(cc1O)CC[C@@H]1[C@@H]2CC[C@]2(C)[C@@H](OCCN(C)C)CC[C@@H]12`, the GI50 in the test on SNB-75 CNS is 0.0787 µM; in the test with SNB-19 CNS, 0.777 µM; in the test on MALME-3M melanoma, 0.155 µM; in the test with HT29 colon, 0.158 µM; with UACC-257 melanoma it was 0.138 µM; with EKVX NSCLC it was 0.527 µM. In the test on UACC-62 melanoma, the GI50 is 0.128 µM. Also, the TGI was found to be 0.449 µM in the test with SNB-75 CNS; 5.14 µM in the test with SNB-19 CNS; 0.753 µM in the test on MALME-3M melanoma; 0.568 µM in the test on HT29 colon; 0.355 µM in the test on UACC-257 melanoma; 28.5 µM in the test on EKVX NSCLC. Also, the TGI with UACC-62 melanoma came out at 0.363 µM.
Take `CC(=O)C1=C(C)N(c2ccc(C)cc2)C2(O)C=CC(=O)C3C(=O)N(c4ccccc4)C(=O)C132` (configuration not stated): the TGI worked out at 50.5 µM with SNB-75 CNS; 65.6 µM with SNB-19 CNS; 46.6 µM with MALME-3M melanoma; 44.8 µM with HT29 colon; 36.5 µM in the test with UACC-257 melanoma; 95.5 µM in the test on EKVX NSCLC. In addition, the TGI in the test on HCT-15 colon is over 100 µM; in the test with UACC-62 melanoma, 35.6 µM; with KM12 colon it was 74.2 µM; with OVCAR-5 ovarian it was over 100 µM.
On to `CC12CC3OC(=O)C1COC14OC5(C2C1=O)C(O)(CCC1C4CC(O)C2(O)CC=CC(=O)C12C)C(=O)OC35C` (configuration not stated), for which the TGI with SNB-75 CNS, with SNB-19 CNS, in the test with MALME-3M melanoma, with HT29 colon, in the test on UACC-257 melanoma and in the test on EKVX NSCLC was over 100 µM throughout. The TGI in the test on HCT-15 colon, in the test with UACC-62 melanoma, with KM12 colon and in the test with OVCAR-5 ovarian was over 100 µM each time.
In the case of `CCC1CN(C(=O)c2ccccc2)C(Cc2c[nH]c3ccccc23)C(=O)C1CC(=O)OC` (configuration not stated), the TGI in the test with SNB-75 CNS, with MALME-3M melanoma, with HT29 colon, with UACC-257 melanoma, in the test with EKVX NSCLC and with HCT-15 colon was over 100 µM throughout. The TGI with UACC-62 melanoma, in the test on KM12 colon and in the test on OVCAR-5 ovarian was over 100 µM throughout.
On to `CCC(C)C1=C(OC(C)=O)[N+]2([O-])Oc3ccc(-c4c(OC(C)=O)c(OC(C)=O)c(-c5ccc(OC(C)=O)cc5)c(OC(C)=O)c4OC(C)=O)cc3OC2(C(C)CC)C(=O)N1OC(C)=O` (configuration not stated), for which the TGI with SNB-75 CNS is 42.3 µM; in the test with SNB-19 CNS, over 50 µM; in the test with MALME-3M melanoma it was over 50 µM; in the test on HT29 colon it was over 50 µM; with UACC-257 melanoma it was over 50 µM; in the test on EKVX NSCLC, 32.7 µM. Besides, the TGI was over 50 µM with HCT-15 colon, 16.7 µM in the test with UACC-62 melanoma, over 50 µM with KM12 colon and over 50 µM in the test on OVCAR-5 ovarian.
For the molecule `CCN(CC(=O)O)C(=O)c1cccnc1`, the TGI in the test on SNB-75 CNS, in the test with SNB-19 CNS, in the test on MALME-3M melanoma, in the test on HT29 colon, with UACC-257 melanoma and in the test on EKVX NSCLC was over 100 µM each time. The TGI in the test on HCT-15 colon, in the test with UACC-62 melanoma, in the test with KM12 colon and in the test with OVCAR-5 ovarian was over 100 µM each time.
